Assay results published in the supplement of paper PMC10307832.

Key:
[1] = compound: CCOC(=O)CCNc1cc(N2CCc3ccccc3CC2)nc(-c2ccccn2)n1 [GSK-J4] + CC(=O)Nc1cccc(-n2c(=O)n(C3CC3)c(=O)c3c(Nc4ccc(I)cc4F)n(C)c(=O)c(C)c32)c1 [Trametinib] (partner 0.02 µM); assay: relative viability (nuclei count vs DMSO), 5 days (fraction); higher = more cells survive
Method in brief: (§1)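 A single step with final 0.05% Triton X-100, 1% formaldehyde and 1 ug/ml Hoechst fixed the cells and stained nuclei 5 days after treatment. Lung cancer cell lines in 1536-well plates had been treated by pin tool the day after seeding with one drug alone or a fixed anchor-drug dose plus five library-drug doses (not always all listed) in √10 steps, and nuclei were counted on 4× images. Relative viability is the ratio of nuclei in treated wells to nuclei in vehicle wells, taken as the median of duplicate plates.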

[2] = compound: CN1CCC(CC1)OC2=CC(=C(C=C2)NC3=NC=C4C(=N3)N(C(=O)N4C)C5CCCC5)OC [AZ3146] + Cc1nc(Nc2ncc(C(=O)Nc3c(C)cccc3Cl)s2)cc(N2CCN(CCO)CC2)n1 [Dasatinib] (partner 0.075 µM); assay: as above
Method in brief: as §1

Row | Cell Line | relative viability ([1]; first compound 0.5 µM) | relative viability ([1]; first compound 1.581 µM) | relative viability ([1]; first compound 5 µM) | relative viability ([1]; first compound 15.81 µM) | relative viability ([1]; first compound 50 µM) | relative viability ([2]; first compound 0.08 µM) | relative viability ([2]; first compound 0.253 µM) | relative viability ([2]; first compound 0.8 µM) | relative viability ([2]; first compound 2.53 µM) | relative viability ([2]; first compound 8 µM)
1 | PC-3 [JPC-3] | 0.783 | 0.551 | 0.598 | 0.647 | 0.64 | 0.86 | 0.92 | 0.991 | 1.12 | 1.05
2 | NCI-H1648 | 0.467 |  | 0.643 |  | 0.429 |  |  |  |  | 
3 | A-427 | 0.702 | 0.567 |  | 0.559 | 0.552 | 0.561 | 0.775 | 0.651 | 0.828 | 0.66
4 | NCI-H1975 | 0.356 | 0.262 | 0.296 | 0.329 | 0.264 | 0.358 | 0.338 | 0.346 | 0.321 | 0.198
5 | LU99A | 0.551 | 0.485 |  | 0.441 | 0.35 | 0.645 | 0.528 | 0.464 | 0.56 | 0.606
6 | NCI-H1755 | 0.809 | 0.72 | 0.754 | 0.649 | 0.65 | 0.492 | 0.425 | 0.424 | 0.441 | 0.408
7 | LOU-NH91 | 0.816 | 0.427 | 0.638 | 0.718 | 0.803 | 0.581 | 0.485 | 0.632 | 0.602 | 0.566
8 | SW 1573 | 0.577 | 0.474 | 0.651 | 0.599 | 0.381 | 0.557 | 0.637 | 0.505 | 0.357 | 0.117
9 | CAL-12T | 0.337 | 0.314 | 0.424 | 0.288 | 0.254 | 0.453 | 0.517 | 0.369 | 0.377 | 0.192
10 | NCI-H1734 | 0.633 | 0.524 | 0.627 | 0.58 | 0.545 | 0.436 | 0.461 | 0.493 | 0.484 | 0.394
11 | LCLC-97TM1 | 0.182 | 0.155 | 0.168 | 0.128 | 0.156 | 0.669 | 0.755 | 0.762 | 0.785 | 0.812
12 | BEN | 1.1 | 0.883 | 0.88 | 0.896 | 0.917 |  | 0.228 | 0.353 | 0.322 | 0.362
13 | COR-L23 | 0.461 | 0.576 |  | 0.544 | 0.429 | 0.425 | 0.527 | 0.509 | 0.457 | 0.313
14 | NCI-H2009 | 0.262 | 0.266 | 0.195 | 0.252 | 0.199 | 0.363 | 0.315 | 0.284 | 0.241 | 0.184
15 | ChaGo-K-1 | 0.934 |  | 0.939 | 0.841 | 0.808 | 0.614 | 0.554 | 0.512 | 0.6 | 0.45
16 | NCI-H2023 | 0.559 | 0.591 | 0.59 | 0.475 | 0.431 | 0.57 | 0.584 | 0.472 | 0.498 | 0.147
17 | NCI-H2405 | 0.586 | 0.63 |  | 0.48 | 0.749 | 0.166 | 0.187 | 0.191 | 0.212 | 0.185
